Where “and” joins values, the source holds several entries; their conditions need not be identical. Equal values may be shown once. Read-outs that look alike come from different tables or passages of the source. Some results are limits rather than exact numbers.

For data set [1] the following is noted: cited from earlier work; for subjects requiring treatment for at least one gout flare: first 8 weeks, with gout flare prophylaxis.
The conditions of data set [2]: cited from earlier work; for patients with gout flares requiring treatment in a month: colchicine prophylaxis.
The next data set deals with serum uric acid (SUA). The following applies: cited from earlier work.
The test system of data set [3] is uric acid. The conditions noted are these: cited from earlier work; for mean uric acid levels at four weeks: monthly dosing.
Another data set deals with ADAs. The conditions noted are these: all KRYSTEXXA-treated subjects; cited from earlier work.
The conditions of data set [4]: cited from earlier work; for flares per patient over the first 3 months: Phase 3; for Flares per patient month: Phase 3 trials.
The subject of data set [5] is uricase specific ADAs. In words: Uricase specific ADA formation in uricase deficient mice. Type of data set: in vivo. The following applies: treated days 0, 7 and 14, pegsiticase alone challenge days 35 and 42. The protocol: (§1) A pharmacology study in mice that were genetically deficient in endogenous uricase was conducted. The study evaluated the efficacy of a dose regimen consisting of three immunizations with SEL 212 followed by doses of pegsiticase alone in preventing the formation of ADAs to pegsiticase. The treatment period consisted of the first 14 days of the study. In the study, mice were separated into three treatment groups. During the treatment period: • the first group, referred to as the Untreated Group, received no treatment; • the second group, referred to as the Pegsiticase Group, was treated with pegsiticase alone; and • the third group, referred to as the SVP Rapamycin+Pegsiticase Group, was treated with SVP Rapamycin co administered with pegsiticase.
(§2) The Pegsiticase Group and SVP Rapamycin+Pegsiticase Group were treated on days zero, seven and 14 of the treatment period. Each group was then treated with pegsiticase alone on days 35 and 42 of the study, or the challenge period. Uricase specific ADA levels were recorded to determine the formation of ADAs to pegsiticase. Uric acid levels were measured to determine effectiveness of SVP Rapamycin co administered with pegsiticase in lowering uric acid levels below 6 mg/dl, which is the treatment target for gout patients.

The test system of data set [6] is uric acid. In words: Uric acid levels in uricase deficient mice. Type of data set: in vivo. On the procedure: as §1, §2
In data set [7] the test system is serum uric acid. In words: Phase 1a clinical trial: serum uric acid. Type of data set: in vivo, human. The protocol:
(§3) The Phase 1a clinical trial for SEL 212 was an ascending dose trial of pegsiticase alone in 22 subjects with elevated serum uric acid levels greater than 6 mg/dl who were separated into five cohorts. Each cohort received a single intravenous infusion of pegsiticase at the following dose levels of 0.1 mg/kg for Cohort #1, 0.2 mg/kg for Cohort #2, 0.4 mg/kg for Cohort #3, 0.8 mg/kg for Cohort #4 and 1.2 mg/kg for Cohort #5. Dosing began with the lowest dose and only after an entire cohort was safely dosed was the next cohort started. The subjects were monitored during a 30 day period post infusion with visits occurring on day 7, 14,21 and the end of trial visit on day 30. Blood and serum of each patient was evaluated for serum uric acid, ADAs (specifically anti-peg, anti-uricase and anti-pegsiticase) and safety parameters.
FIG. 4 depicts average serum uric acid levels of the Phase 1a clinical trial's five cohorts tested at different measurement intervals (Day 7, 14, 21 and 30) during the course of the 30 day period following the single intravenous infusion of pegsiticase at the outset of the trial.
The serum uric acid levels were measured at baseline and days seven, 14, 21 and 30 and uricase specific ADA levels at baseline and days seven, 14 and 30 following a single intravenous injection of pegsiticase. Uricase specific ADA levels at day 21 in the Phase 1a clinical trial were not measured. Based on the results from the Phase 1a clinical trial, it was observed that pegsiticase at a tolerated dose is capable of achieving and maintaining a reduction of serum uric acid below the target of 6 mg/dl for a 30 day period in the absence of inhibitory uricase specific ADAs.

For data set [8], the system named is uricase specific ADAs. Description: Phase 1a clinical trial: uricase specific ADAs. Type of data set: in vivo, human. The conditions noted are these: single infusion; varying levels. The protocol:
as §3
The serum uric acid levels were measured at baseline and days seven, 14, 21 and 30 and uricase specific ADA levels at baseline and days seven, 14 and 30 following a single intravenous injection of pegsiticase. Uricase specific ADA levels at day 21 in the Phase 1a clinical trial were not measured. […]

Data set [9] can be described thus: Phase 1a clinical trial: safety. The following applies: single intravenous infusion, five dose levels 0.1-1.2 mg/kg. Type of data set: in vivo, human. On the procedure:
as §3

Data set [10] relates to serum uric acid. In words: Phase 1b clinical trial: serum uric acid. Type of data set: in vivo, human. The protocol: (§4) The Phase 1b clinical trial enrolled 63 patients with serum uric acid levels greater than 6 mg/dl separated into 11 cohorts. A single intravenous infusion of SVP Rapamycin alone at the following ascending dose levels was administered to four cohorts in ascending order. Each cohort consisted of seven patients and were designated as follows: Cohort #1 (0.03 mg/kg), Cohort #3 (0.1 mg/kg), Cohort #5 (0.3 mg/kg) and Cohort #7 (0.5 mg/kg) collectively the SVP Rapamycin Cohorts. After a cohort of the SVP-Rapamycin alone had successfully and safely been dosed the corresponding dose level of SVP Rapamycin was combined with a fixed dose of pegsiticase (0.4 mg/kg). The combination was co-administered sequentially as a single intravenous infusion, with the SVP Rapamycin infusion preceding the pegsiticase infusion. […] The subjects were monitored during a 30 day period post infusion with visits occurring on day 7, 14,21 and the end of trial visit on day 30. Blood and serum of each patient was evaluated for serum uric acid, ADAs (specifically anti-PEG, anti-uricase and anti-pegsiticase) and safety parameters. […]

The subject of data set [11] is uricase specific ADAs. In words: Phase 1b clinical trial: uricase specific ADAs. The following applies: pegsiticase alone 0.4 mg/kg, Cohort #3 Phase 1a and Cohort #9 Phase 1b; resulting in return to baseline serum uric acid. Type of data set: in vivo, human. On the procedure:
as §4
In the Phase 1a clinical trial, uricase specific ADA levels at day 21 was not measured. […] As a result, for the Phase 1b clinical trial, uricase specific ADA levels at day 21 were monitored.

Data set [12] can be described thus: Phase 1a and Phase 1b clinical trials: safety and tolerability. Type of data set: in vivo, human. The following applies: 85 subjects dosed in Phase 1a and Phase 1b. The protocol:
as §3
The Phase 1b clinical trial enrolled 63 patients with serum uric acid levels greater than 6 mg/dl separated into 11 cohorts. A single intravenous infusion of SVP Rapamycin alone at the following ascending dose levels was administered to four cohorts in ascending order. […] The subjects were monitored during a 30 day period post infusion with visits occurring on day 7, 14,21 and the end of trial visit on day 30. Blood and serum of each patient was evaluated for serum uric acid, ADAs (specifically anti-PEG, anti-uricase and anti-pegsiticase) and safety parameters. […]

Data set [13] can be described thus: Gout flare in first month, pegsiticase alone (Phase 1, Table 1). Type of data set: in vivo, human. The protocol:
as §3
When pegsiticase was administered alone in the Phase 1 described in Example 2, 57% (4 out of 7 patients) of those with a history of gout had signs of gout flare in the first month after receiving the study drug (Table 1). […] This subject was in the cohort that received only the rapamycin-comprising nanocarrier (without uricase). […] The flare was, therefore, unrelated to a change in serum uric acid. […] This patient's serum uric acid level dropped from 8.8 mg/dL to 0.1 mg/dL within 90 minutes following drug administration. So, although this subject had only been diagnosed with asymptomatic hyperuricemia before the study, a flare did seem to coincide with a drop in serum uric acid.

On to `Cc1nc(-c2ccc(OCC(C)C)c(C#N)c2)sc1C(=O)O` [Febuxostat, febuxostat], for which the “Flares per patient month” value in data set [1] (80 mg/day) is 0.77 flares per patient month; in data set [1] (80 mg/day, listed as febuxostat), “at least 0.22 flares per patient month”; in [1] (120 mg/day), 0.36 flares per patient month; in data set [1] (120 mg/day, listed as febuxostat) it was at least 0.36 flares per patient month. In addition, the “subjects requiring treatment for at least one gout flare” value in data set [1] (80 mg/day) is on record as 55 out of 255; in [1] (120 mg/day), 90 out of 250.
Consider `O=C(O)CSc1nnc(Br)n1-c1ccc(C2CC2)c2ccccc12` [Lesinurad, lesinurad], for which the “patients with gout flares requiring treatment in a month” value in data set [2] (200 mg daily) was 10 out of 46; in data set [2] (400 mg daily), 13 out of 42; in [2] (600 mg daily), 15 out of 48. The entries for the “Flares per patient month” value in [2] (200 mg/day), in data set [2] (400 mg/day) and in [2] (600 mg/day) were 0.22 flares per patient month, 0.31 flares per patient month and 0.31 flares per patient month, respectively. Moreover, the “Time of efficacy (area under curve of mean sUA levels over time)” value is 158.5 in the data set on serum uric acid (SUA) (Lesinurad 200 mg/day), 165.8 with serum uric acid (SUA) (Lesinurad 400 mg/day) and 167.5 in the data set on serum uric acid (SUA) (Lesinurad 600 mg/day).
For Pegloticase, the “non-responders, share of subjects” value with uric acid [3] (monthly dosing cohorts) is 65%. In the data set with uric acid [3] (monthly dosing cohorts), the “subjects classified as responders (uric acid below 6 mg/dl for 80% of the time at months three and six)” value was 35%. The “mean uric acid levels at four weeks” value is “above 6 mg/dl” with uric acid [3] (non-responders) and “above 4 mg/dl” in the data set with uric acid [3] (responders). Further, the “treated subjects that developed ADAs” value in the data set with ADAs was 89%. In addition, the “flares per patient over the first 3 months” value is reported as 2.3 in [4] (biweekly pegloticase, 85 patients) and 2.7 in data set [4] (monthly pegloticase, 84 patients). In addition, the “Flares per patient month” value in data set [4] (pegloticase biweekly) was 0.77 flares per patient month; in data set [4] (pegloticase monthly) it was 0.90 flares per patient month; in [4] (pegloticase monthly, listed as pegloticase) it was 0.9 flares per patient month. In addition, the “study subjects reporting one or more flares” value in data set [4] (phase 2 trial, three-month study) is 88%. In addition, the “patients with gout flares in the first 3 months” value in [4] (two phase 3 trials, despite gout flare prophylaxis (colchicine or NSAIDs)) is on record as “about 80%”. Further, the “Time of efficacy (area under curve of mean sUA levels over time)” value is “Nonresponders-84.35” with serum uric acid (SUA) (Pegloticase biweekly, Nonresponders); “Responders-26.6” in the data set on serum uric acid (SUA) (Pegloticase biweekly, Responders); “Nonresponders-99.75” in the data set on serum uric acid (SUA) (Pegloticase monthly, Nonresponders); “Responders-53.55” in the data set on serum uric acid (SUA) (Pegloticase monthly, Responders).
As to “Recombinant Pegylated Candida Urate Oxidase [pegsiticase]”, the entries for the “uricase specific ADA formation” value in the data set with uricase specific ADAs [5] and in the data set on uricase specific ADAs [11] were “developed uricase specific ADAs” and “uricase specific ADA formation at day 14”, respectively. Also, the uric acid levels entry in the data set on uric acid [6] (after the first dose in the treatment period) is “below 6 mg/dl”; in the data set on uric acid [6] (subsequent doses in the treatment period and challenge period), above 6 mg/dL. Further, in the data set with serum uric acid [7] (each cohort, depending on the dose level), the “time average serum uric acid levels sustained below 6 mg/dl” value is given as 14 to 30 days. Also, the “time within which serum uric acid levels dropped significantly” value with serum uric acid [7] (single intravenous infusion, all 22 subjects) is “approximately 10 hours”. In addition, in the data set on serum uric acid [7] (single intravenous infusion, majority of patients), the “time after dosing by which serum uric acid levels rebounded” value was in the range of 14 to 21 days. In the data set with uricase specific ADAs [8], the “uricase specific ADAs” value was “induced uricase specific ADAs in all subjects”. Moreover, the serious adverse events result in [9] is “no serious adverse events”. Moreover, the tolerability entry in [9] and in data set [12] was “well tolerated” in each case. Further, the “subjects returned to baseline serum uric acid levels by day 30” value with serum uric acid [10] (Cohort #9: pegsiticase alone 0.4 mg/kg) is on record as “four of the five”. For the same compound, the “serum uric acid levels” value in the data set on serum uric acid [10] (pegsiticase alone 0.4 mg/kg, Cohort #3 Phase 1a and Cohort #9 Phase 1b, initial control, enzyme activity lost past day 14) is listed as “below 6 mg/dL”. For the same compound, the “Flare in 1st month” value in data set [13] (individual subject with history of gout, SEL-037 0.8 mg/kg) was “no”; in data set [13] (individual subjects with history of gout, SEL-037 0.1 mg/kg, 0.1 mg/kg), “no and yes (2×) and yes (positive for”; in data set [13] (individual subjects with history of gout, SEL-037 0.2 mg/kg, 0.2 mg/kg), “no and yes (mild gout, right”. Moreover, in data set [13] (pegsiticase alone, Phase 1, 4 out of 7 patients), the “subjects with a history of gout with signs of gout flare in the first month” value is given as 57%.

(Values after patent US20250057756A1, “FORMULATIONS AND DOSES OF PEGYLATED URICASE” (Cartesian Therapeutics, Inc., priority 2016, published 2025).)
